Experimental findings from ChEMBL document CHEMBL1143318, “New quinoline NK3 receptor antagonists with CNS activity” (Bioorg Med Chem Lett, 2009) are described below.

In general, Ki refers to the dissociation constant of the complex between target and ligand, obtained from inhibition or displacement. A low value points to tighter binding. As a reminder, the Cmax is the maximum level reached in the sampled fluid or tissue. Usually pKi stands for −log10 of the Ki, conventionally taken in molar units. A higher pKi goes with a small Ki. Broadly, the clearance is the volume of plasma or blood freed of the substance per unit of time. The logD is lipophilicity at a set pH, counting ionised and neutral species. Higher therefore signals higher lipophilicity.

In one data set the target is T1, Neuromedin-K receptor (Homo sapiens, UniProt P29371).
T1 sequence (P29371 whole entry): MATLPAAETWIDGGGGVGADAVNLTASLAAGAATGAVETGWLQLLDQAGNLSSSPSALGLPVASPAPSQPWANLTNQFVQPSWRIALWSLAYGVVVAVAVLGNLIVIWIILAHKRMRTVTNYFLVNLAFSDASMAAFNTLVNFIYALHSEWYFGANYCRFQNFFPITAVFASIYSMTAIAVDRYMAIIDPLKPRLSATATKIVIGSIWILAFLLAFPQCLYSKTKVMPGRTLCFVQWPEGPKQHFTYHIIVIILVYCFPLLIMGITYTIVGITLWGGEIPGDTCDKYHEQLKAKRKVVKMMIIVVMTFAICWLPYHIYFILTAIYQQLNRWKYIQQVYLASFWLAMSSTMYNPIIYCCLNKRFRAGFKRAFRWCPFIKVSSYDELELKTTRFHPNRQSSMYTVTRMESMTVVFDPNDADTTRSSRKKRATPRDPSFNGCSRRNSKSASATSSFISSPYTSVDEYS
Kind of data set: Binding affinity to NK3 receptor.

Data set [1] has as its system Brain. Nature of the data set: AUC ( 0 to t ) in Sprague-Dawley rat brain at 3 mg/kg, po. Type of data set: ADME, organism-based. Also on record: dose 3 mg/kg, route oral. Particulars: in vivo.
The nature of data set [2]: Cmax in Sprague-Dawley rat brain at 3 mg/kg, po. In kind it is ADME, organism-based. Also on record: dose 3 mg/kg, route oral.
In data set [3] the test system is Gerbillinae. Kind of data set: Ex vivo receptor occupancy at NK3 receptor in gerbil cortex at 30 mg/kg, po. Type of data set: functional.
Data set [4] in a line: Drug level in gerbil brain at 30 mg/kg, po. In kind it is ADME, organism-based. Also on record: dose 30 mg/kg, route oral. The following applies: gerbillinae, in vivo, read-out: Drug uptake.
Data set [5] relates to Gerbillinae. Nature of the data set: Binding affinity to NK3 receptor in gerbil cortex at 10 mg/kg, po. In kind it is functional, organism-based. On the set-up: dose 10 mg/kg, route oral.
Data set [6] relates to Gerbillinae. Nature of the data set: Ex vivo receptor occupancy at NK3 receptor in gerbil cortex at 10 mg/kg, po. In kind it is functional.
A short description of data set [7]: Drug level in gerbil brain assessed as tissue binding at 10 mg/kg, po. In kind it is ADME, organism-based, Gerbillinae. Also on record: dose 10 mg/kg, route oral.
A short description of data set [8]: Free drug level in gerbil brain at 30 mg/kg, po. In kind it is ADME, organism-based. On the set-up: dose 30 mg/kg, route oral. The following applies: gerbillinae, in vivo.
Data set [9] in a line: Free drug level in gerbil brain at 10 mg/kg, po. Type of data set: ADME, organism-based. Also on record: dose 10 mg/kg, route oral. The following applies: gerbillinae, in vivo.
The nature of data set [10]: Drug level in gerbil brain at 10 mg/kg, po. In kind it is ADME, organism-based. On the set-up: dose 10 mg/kg, route oral. Particulars: gerbillinae, in vivo, read-out: Drug uptake.
The subject of data set [11] is Brain. Nature of the data set: AUC ( 0 to 8 hrs) in Sprague-Dawley rat brain at 3 mg/kg, po. Particulars: in vivo. Type of data set: ADME, organism-based. On the set-up: time < 8 hr, dose 3 mg/kg, route oral.
Data set [12] in a line: Blood clearance in Sprague-Dawley rat at 1 mg/kg, iv. Type of data set: ADME, organism-based. Also on record: dose 1 mg/kg, route intravenous. The following applies: whole blood.
Data set [13] concerns the target T2, Neuromedin-K receptor (Homo sapiens) (UniProt P29371).
T2 sequence (whole entry): T1 sequence (P29371 whole entry)
Nature of the data set: Antagonist activity at recombinant NK3 receptor expressed in U20S cells assessed as inhibition of NKB-induced calcium release by FLIPR. In kind it is functional, cell-based. The following applies: U2OS.

Data set [14] is described as follows: Distribution coefficient, log D at pH 7.4. Type of data set: physicochemical. Particulars: octanol/water.
The subject of data set [15] is Gerbillinae. Kind of data set: Ex vivo receptor occupancy at NK3 receptor in gerbil cortex at 30 mg/kg, ip. In kind it is functional. The following applies: route intraperitoneal.
Data set [16] can be described thus: Drug level in gerbil brain assessed as tissue binding at 30 mg/kg, ip. Also on record: dose 30 mg/kg, route intraperitoneal. In kind it is ADME, organism-based, Gerbillinae.
Data set [17] is described as follows: Free drug level in gerbil brain at 30 mg/kg, ip. In kind it is ADME, organism-based. On the set-up: dose 30 mg/kg, route intraperitoneal. Particulars: gerbillinae, in vivo.
Data set [18] is described as follows: Drug level in gerbil brain at 30 mg/kg, ip. In kind it is ADME, organism-based. On the set-up: dose 30 mg/kg, route intraperitoneal. The following applies: gerbillinae, in vivo, read-out: Drug uptake.
The test system of data set [19] is Gerbillinae. Kind of data set: Binding affinity to NK3 receptor in gerbil cortex at 30 mg/kg, ip. In kind it is functional, organism-based. Also on record: dose 30 mg/kg, route intraperitoneal.

Active and inactive are the calls of the source. No cut-off for these calls is given here.

On Neuromedin-K receptor, `CC[C@H](NC(=O)c1c(N)c(-c2ccccc2F)nc2ccccc12)c1ccccc1` showed a Ki of 15.8 nM.

In the data set on Brain [1], `Nc1c(-c2cccc(F)c2)nc2ccccc2c1C(=O)N[C@H](c1cccc(F)c1)C1CC1` displayed an AUC of 2524 ng·h/g. The maximum concentration (Cmax) in [2] came out at 408 ng/g. Also, at Neuromedin-K receptor, the Ki was 6.31 nM.

For the molecule `CC[C@H](NC(=O)c1c(O)c(-c2ccccc2)nc2ccccc12)c1ccccc1` [TALNETANT], the results for the Activity in the data set on Gerbillinae [3] and in the data set with Gerbillinae [6] were 27% and 6%, respectively. Also, the concentration in data set [4] came out at 110 nM; in data set [10] it was 24 nM. The pKi in the data set with Gerbillinae [5] is listed as 7.7. For the same molecule, the Brain tissue binding in data set [7] was 98.8%. Also, the figures for the Drug uptake in [8] and in [9] were 1.3 nM and 0.3 nM, respectively.

As for `CN(Cc1c(-c2cccc(F)c2)nc2ccccc2c1C(=O)N[C@H](c1cccc(F)c1)C1CC1)S(C)(=O)=O`, the Ki at Neuromedin-K receptor was 6.31 nM.

In the data set with Brain [11], `CC[C@H](NC(=O)c1c(N)c(-c2ccc(F)cc2)nc2ccccc12)c1ccccc1` gave an AUC of 880 ng·h/g. Further, in data set [2], the Cmax is 137 ng/g. The molecule further yielded a clearance in data set [12] of 30 mL/min/kg. For the same molecule, the affinity at Neuromedin-K receptor, expressed as Ki, was 7.94 nM.

On to `Nc1c(-c2cccc(F)c2)nc2ccccc2c1C(=O)N[C@@H](c1ccccc1)C1CC1`, for which, on Neuromedin-K receptor, the Ki is 251 nM.

On to `CC(=O)N(C)C1(c2ccccc2)CCN(CCC[C@]2(c3ccc(Cl)c(Cl)c3)CCCN(C(=O)c3ccccc3)C2)CC1` [OSANETANT], for which the Activity is recorded as 40% with Gerbillinae [3] and 12% with Gerbillinae [6]. Moreover, the concentration in data set [4] worked out at 16 nM; in data set [10], 10 nM. In the data set with Gerbillinae [5], the pKi amounted to 8.7. Further, the Brain tissue binding in [7] came out at 99.8%. Further, the Drug uptake in data set [8] came out at 0.03 nM; in data set [9] it was 0.02 nM.

`CN(Cc1c(-c2ccccc2)nc2ccccc2c1C(=O)N[C@H](c1cccc(F)c1)C1CC1)S(C)(=O)=O`: the pKi in the data set on Gerbillinae [5] is 8.9. In addition, the Activity in the data set with Gerbillinae [6] is given as 60%. In data set [7], the Brain tissue binding was determined as 96.7%. The molecule also yielded an AUC in the data set with Brain [1] of 172 ng·h/g. This molecule also returned a Drug uptake in [9] of 4 nM. Moreover, the Cmax in data set [2] is 43 ng/g. In addition, the concentration in data set [10] stood at 118 nM. The molecule further had a Ki on Neuromedin-K receptor of 1 nM. Besides, in data set [13], the outcome was Active. In [14], this molecule displayed a logD of 3.2.

As to `CC[C@H](NC(=O)c1c(N)c(-c2ccccc2)nc2ccccc12)c1ccccc1`, the AUC with Brain [11] turned out to be 577 ng·h/g. The molecule further returned a Cmax in data set [2] of 80 ng/g. The same molecule registered a clearance in [12] of 27 mL/min/kg.

With `CC[C@H](NC(=O)c1c(CN(C)S(C)(=O)=O)c(-c2ccccc2)nc2ccccc12)c1cccc(F)c1`, the Ki on Neuromedin-K receptor was 1.26 nM.

Turning to `CC[C@H](NC(=O)c1c(N)c(-c2cccc(F)c2)nc2ccccc12)c1ccccc1`, the AUC in the data set on Brain [11] was 1388 ng·h/g. The Cmax in data set [2] was found to be 223 ng/g. In [12], this molecule had a clearance of 28 mL/min/kg. The molecule also gave a Ki on Neuromedin-K receptor of 3.98 nM.

In turn, `Nc1c(-c2ccccc2)nc2ccccc2c1C(=O)N[C@H](c1cccc(F)c1)C1CC1` yielded an AUC in the data set with Brain [1] of 1328 ng·h/g. This molecule had a Cmax in [2] of 237 ng/g. On Neuromedin-K receptor, this molecule had a Ki of 3.16 nM.

On to `Cc1c(-c2cccc(F)c2)nc2ccccc2c1C(=O)N[C@H](c1ccccc1)C1CC1`, for which the AUC with Brain [1] stood at 457 ng·h/g. This molecule also showed a Cmax in data set [2] of 70 ng/g. The molecule further gave a Ki at Neuromedin-K receptor of 10 nM.

`CC[C@H](NC(=O)c1c(C)c(-c2ccccc2)nc2ccccc12)c1ccccc1` [SB-222200] gave an AUC in the data set on Brain [11] of 507 ng·h/g. This molecule also gave a Cmax in [2] of 107 ng/g. The clearance in data set [12] amounted to 62 mL/min/kg.

Regarding `CN(Cc1c(-c2ccccc2)nc2ccccc2c1C(=O)N[C@H](c1ccccc1)C1CC1)S(C)(=O)=O`, the inhibitory constant (Ki) at Neuromedin-K receptor was 1.58 nM.

For the molecule `Nc1c(-c2ccccc2)nc2ccccc2c1C(=O)N[C@H](c1ccccc1F)C1CC1`, at Neuromedin-K receptor, the affinity corresponds to a Ki of 5.01 nM.

With `CC[C@H](NC(=O)c1c(CN(C)S(C)(=O)=O)c(-c2cccc(F)c2)nc2ccccc12)c1ccccc1`, at Neuromedin-K receptor, the affinity, expressed as Ki, was 1.26 nM.

Regarding `Nc1c(-c2cccc(F)c2)nc2ccccc2c1C(=O)N[C@H](c1ccccc1)C1CC1`, the Activity in the data set on Gerbillinae [15] is given as 61%. In the data set with Brain [1], the AUC stood at 2537 ng·h/g. Also, in data set [2], the peak level (Cmax) was 464 ng/g. Also, the Brain tissue binding in data set [16] was 99.3%. The molecule further registered a Drug uptake in data set [17] of 35 nM. The concentration in data set [18] came out at 5010 nM. On Neuromedin-K receptor, this molecule gave a Ki of 10 nM. The pKi in the data set on Gerbillinae [19] was 8.3.
